Data set [1] deals with T1, Nuclear factor erythroid 2-related factor 2 (Mus musculus) (UniProt Q60795).
T1 sequence (whole entry): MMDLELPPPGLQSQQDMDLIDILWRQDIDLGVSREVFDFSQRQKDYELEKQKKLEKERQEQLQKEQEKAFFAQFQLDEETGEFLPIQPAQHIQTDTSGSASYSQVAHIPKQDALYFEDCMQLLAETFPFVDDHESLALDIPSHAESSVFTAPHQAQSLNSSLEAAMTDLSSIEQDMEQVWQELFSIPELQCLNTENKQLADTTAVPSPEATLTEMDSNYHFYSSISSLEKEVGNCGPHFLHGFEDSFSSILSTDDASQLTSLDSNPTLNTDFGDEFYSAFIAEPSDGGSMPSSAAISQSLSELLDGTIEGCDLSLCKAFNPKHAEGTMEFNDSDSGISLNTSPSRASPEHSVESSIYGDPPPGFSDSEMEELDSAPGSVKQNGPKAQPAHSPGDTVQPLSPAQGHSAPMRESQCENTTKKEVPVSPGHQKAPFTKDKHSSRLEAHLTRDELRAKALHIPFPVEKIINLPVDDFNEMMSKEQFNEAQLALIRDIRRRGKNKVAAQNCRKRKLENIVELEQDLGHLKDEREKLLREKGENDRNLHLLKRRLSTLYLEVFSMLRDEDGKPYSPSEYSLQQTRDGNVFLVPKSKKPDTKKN
The data set is described as follows: Activation of Nrf2 in mouse BV-2 cells assessed as increase in HO-1 protein expression at 3 uM measured after 24 hrs by immunoblot analysis. The class given is cell-based. The settings on record: filed as activator.

For data set [2], the target named is T2, CYP1A2 (Homo sapiens, UniProt P05177).
T2 sequence (P05177 whole entry): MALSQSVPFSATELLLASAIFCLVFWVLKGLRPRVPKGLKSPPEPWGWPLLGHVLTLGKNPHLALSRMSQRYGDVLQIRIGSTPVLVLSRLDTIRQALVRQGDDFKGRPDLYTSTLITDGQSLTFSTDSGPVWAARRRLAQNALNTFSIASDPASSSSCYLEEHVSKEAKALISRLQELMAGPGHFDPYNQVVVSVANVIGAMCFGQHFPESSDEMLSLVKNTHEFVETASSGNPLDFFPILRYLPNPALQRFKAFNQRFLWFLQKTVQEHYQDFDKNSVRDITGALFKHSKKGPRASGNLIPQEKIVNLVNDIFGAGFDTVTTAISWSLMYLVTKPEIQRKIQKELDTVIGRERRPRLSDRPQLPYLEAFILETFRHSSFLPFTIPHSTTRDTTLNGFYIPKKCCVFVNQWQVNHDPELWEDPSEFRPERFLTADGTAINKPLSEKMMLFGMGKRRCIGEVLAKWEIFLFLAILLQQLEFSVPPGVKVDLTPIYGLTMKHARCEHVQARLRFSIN
Briefly: Inhibition of CYP1A2 (unknown origin) assessed as enzyme activity at 10 uM relative to control. The class given is ADME. Also on record: scale not given: the % may be the effect or the level left. The settings on record: read-out: Activity.

For data set [3], the target named is CYP2C9 (Homo sapiens, UniProt P11712). The data set is described as follows: Inhibition of CYP2C9 (unknown origin) assessed as enzyme activity at 10 uM relative to control. The class given is ADME. Also on record: scale not given: the % may be the effect or the level left. Particulars: read-out: Activity.
The subject of data set [4] is Mus musculus. Briefly: Antiinflammatory activity against LPS-induced neuroinflammation C57BL/6N mouse model assessed as reduction of glial cell reactivity by measuring reduction in IBA1 expression in dentate gyrus at 20 mg/kg/day, po administered for 3 days followed by LPS administration for 7 days by immunofluorescence staining based analysis. Particulars: time 10.0 day. The class given is functional, organism-based.

Data set [5] addresses T1, Nuclear factor erythroid 2-related factor 2 (Mus musculus). The data set is described as follows: Activation of Nrf2 in mouse BV-2 cells assessed as increase in Nrf2 level in whole cell lysates measured after 3 hrs by immunoblot analysis. The class given is subcellular. Particulars: filed as activator, dose 0.01-3 µM.
The target is the same in data set [6]. Briefly: Activation of Nrf2 in mouse BV-2 cells assessed as increase in Nrf2 nuclear translocation at 3 uM measured upto 9 hrs by immunoblot analysis relative to control. The class given is subcellular. The settings on record: Nucleus.
Data set [7] has the same target. The data set is described as follows: Activation of Nrf2 in mouse BV-2 cells assessed as increase in GCLM protein expression at 3 uM measured after 12 hrs by immunoblot analysis. The settings on record: filed as activator. The class given is cell-based.
For data set [8] the target is unchanged. Briefly: Activation of Nrf2 in mouse BV-2 cells assessed as increase in Nrf2 level in whole cell lysates at 3 uM measured after 3 hrs by immunoblot analysis. The settings on record: filed as activator. The class given is subcellular.
Data set [9] concerns Mus musculus. The data set is described as follows: Antiinflammatory activity against LPS-induced neuroinflammation C57BL/6N mouse model assessed as reduction of glial cell reactivity by measuring reduction in GFAP expression in hippocampus CA1 region at 20 mg/kg/day, po administered for 3 days followed by LPS administration for 7 days by immunofluorescence staining based analysis. The class given is functional, organism-based. The settings on record: time 10.0 day.

Data set [10] deals with CYP3A4 (Homo sapiens, UniProt P08684). Briefly: Inhibition of CYP3A4 (unknown origin) assessed as enzyme activity at 10 uM relative to control. The class given is ADME. Further details: scale not given: the % may be the effect or the level left. Particulars: read-out: Activity.
The test system of data set [11] is BV-2. The data set is described as follows: Antiinflammatory activity against LPS-induced mouse BV-2 cells assessed as inhibition of IL-6 mRNA expression at 0.03 to 3 uM pretreated for 6 hrs followed by LPS stimulation for 6 hrs by qRT-PCR analysis. The class given is functional, cell-based. Particulars: dose 0.03-3 µM, time 12.0 hrs.
Data set [12] deals with BV-2. The data set is described as follows: Cytotoxicity against mouse BV-2 cells assessed as effect on cell viability upto 3 uM incubated for 24 hrs by WST assay. The class given is toxicity, cell-based. Particulars: bv-2, 24 h.
For data set [13], the target named is CYP2D6 (Homo sapiens, UniProt P10635). The data set is described as follows: Inhibition of CYP2D6 (unknown origin) assessed as enzyme activity at 10 uM relative to control. Particulars: read-out: Activity. The class given is ADME. Also on record: scale not given: the % may be the effect or the level left.
For data set [14], the system named is Mus musculus. The data set is described as follows: Antiinflammatory activity against LPS-induced neuroinflammation C57BL/6N mouse model assessed as inhibition of IL-6 production in plasma at 20 mg/kg/day, po administered for 3 days followed by LPS administration for 7 days by ELISA. The class given is functional, organism-based. Particulars: time 10.0 day.

A short description of data set [15]: Metabolic stability of the compound in human plasma assessed as parent compound remaining measured after 30 mins. The class given is ADME, cell-free. The settings on record: read-out: Stability.
Data set [16] relates to BV-2. Briefly: Antiinflammatory activity against LPS-induced mouse BV-2 cells assessed as inhibition of NOS2 mRNA expression at 0.1 to 3 uM pretreated for 6 hrs followed by LPS stimulation for 6 hrs by qRT-PCR analysis. The class given is functional, cell-based. The settings on record: dose 0.1-3 µM, time 12.0 hrs.
Data set [17] deals with BV-2. Briefly: Antiinflammatory activity against LPS-induced mouse BV-2 cells assessed as inhibition of NO production at 0.001 to 1 uM pretreated for 6 hrs followed by LPS stimulation for 24 hrs by Griess assay. Particulars: dose 0.001-1 µM, time 30.0 hrs. The class given is functional, cell-based.
Data set [18] concerns BV-2. Briefly: Antiinflammatory activity against LPS-induced mouse BV-2 cells assessed as inhibition of IL-6 production at 0.1 to 3 uM pretreated for 6 hrs followed by LPS stimulation for 24 hrs by ELISA. The class given is functional, cell-based. The settings on record: dose 0.1-3 µM, time 30.0 hrs.
Data set [19] relates to Mus musculus. Briefly: Antiinflammatory activity against LPS-induced neuroinflammation C57BL/6N mouse model assessed as reduction of glial cell reactivity by measuring reduction in GFAP expression in dentate gyrus at 20 mg/kg/day, po administered for 3 days followed by LPS administration for 7 days by immunofluorescence staining based analysis. The class given is functional, organism-based. Particulars: time 10.0 day.

The target in data set [20] is T1, Nuclear factor erythroid 2-related factor 2 (Mus musculus). Briefly: Activation of Nrf2 in mouse BV-2 cells assessed as increase in GCLM protein expression measured after 12 hrs by immunoblot analysis. The class given is cell-based. The settings on record: filed as activator, dose 0.01-3 µM.

SMILES strings stand for the structures. Active and inactive are the calls of the source. The rule behind the calls is not given here. A value given as a limit tells only on which side of the number the result lay.

Chain of CYP2C9 (P11712 whole entry): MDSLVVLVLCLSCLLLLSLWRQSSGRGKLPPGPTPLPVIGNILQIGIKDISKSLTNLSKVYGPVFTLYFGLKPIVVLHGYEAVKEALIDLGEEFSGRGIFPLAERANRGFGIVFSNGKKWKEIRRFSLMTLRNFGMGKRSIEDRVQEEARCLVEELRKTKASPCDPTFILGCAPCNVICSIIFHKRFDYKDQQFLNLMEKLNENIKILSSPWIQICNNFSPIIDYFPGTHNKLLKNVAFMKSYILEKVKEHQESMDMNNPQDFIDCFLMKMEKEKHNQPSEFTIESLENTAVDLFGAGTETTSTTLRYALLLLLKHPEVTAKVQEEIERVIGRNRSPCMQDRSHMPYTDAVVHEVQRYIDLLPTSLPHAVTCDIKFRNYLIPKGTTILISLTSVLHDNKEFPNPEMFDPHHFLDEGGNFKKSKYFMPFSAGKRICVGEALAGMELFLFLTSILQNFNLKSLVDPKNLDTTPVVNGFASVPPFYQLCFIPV
Chain of CYP2D6 (P10635 whole entry): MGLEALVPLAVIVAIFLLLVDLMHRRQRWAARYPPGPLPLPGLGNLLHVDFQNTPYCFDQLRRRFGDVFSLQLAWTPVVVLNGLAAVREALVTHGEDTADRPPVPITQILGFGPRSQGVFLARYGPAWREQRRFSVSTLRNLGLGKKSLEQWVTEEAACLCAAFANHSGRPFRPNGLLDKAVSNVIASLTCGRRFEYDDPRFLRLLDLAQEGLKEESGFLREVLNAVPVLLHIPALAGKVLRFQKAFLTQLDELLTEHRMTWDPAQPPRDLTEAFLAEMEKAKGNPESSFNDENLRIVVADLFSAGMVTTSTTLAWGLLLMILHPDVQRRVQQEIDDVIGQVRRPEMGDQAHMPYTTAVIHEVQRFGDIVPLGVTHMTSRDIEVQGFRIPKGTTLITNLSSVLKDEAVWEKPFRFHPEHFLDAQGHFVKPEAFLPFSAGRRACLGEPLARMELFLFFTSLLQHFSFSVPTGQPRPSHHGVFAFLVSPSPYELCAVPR
Chain of CYP3A4 (P08684 whole entry): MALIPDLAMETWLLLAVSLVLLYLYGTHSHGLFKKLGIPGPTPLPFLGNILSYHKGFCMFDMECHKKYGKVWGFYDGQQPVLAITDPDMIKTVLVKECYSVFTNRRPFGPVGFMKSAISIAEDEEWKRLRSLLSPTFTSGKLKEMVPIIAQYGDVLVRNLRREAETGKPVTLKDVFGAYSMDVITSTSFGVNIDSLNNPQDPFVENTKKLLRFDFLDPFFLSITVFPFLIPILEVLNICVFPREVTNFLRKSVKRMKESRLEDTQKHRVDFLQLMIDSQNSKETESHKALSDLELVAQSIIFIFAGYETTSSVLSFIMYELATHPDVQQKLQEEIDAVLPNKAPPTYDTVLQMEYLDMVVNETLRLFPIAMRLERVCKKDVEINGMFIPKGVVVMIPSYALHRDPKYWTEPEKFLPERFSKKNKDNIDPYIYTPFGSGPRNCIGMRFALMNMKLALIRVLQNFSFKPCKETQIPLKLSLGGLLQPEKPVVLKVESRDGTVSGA

As to `COc1cccnc1S(=O)(=O)/C=C/c1ncccc1Cl`, the Activity entry in data set [1], in data set [4], in [7], in data set [8], in [9] and in data set [11] was “Active” each time. The Activity entry in data set [14], in data set [16], in data set [17], in data set [18] and in data set [19] was “Active” in each case. The activity at 10 µM in [2] was 84.9%; in [3] it was more than 99%; in data set [10], 77.1%; in data set [13] it was more than 99%. In addition, the Activity entry in data set [5] is “Dose-Dependent Effect”; in data set [12], “Non-Toxic”; in data set [20] it was “Dose-Dependent Effect”. Further, the fold change (FC) in data set [6] was more than 7. In data set [15], the remaining at 0.5 h came out at 92.8%.

The values above are taken from ChEMBL document CHEMBL5370549, “Optimization and evaluation of pyridinyl vinyl sulfones as Nrf2 activator for the antioxidant and anti-inflammatory effects” (Eur J Med Chem, 2023).
